Entries after “also recorded” stand apart in the source; their conditions may differ.
Tests used:
K-Ras G12D = molecular target: T1, K-Ras G12D (Homo sapiens, UniProt P01116, G12D); test: Covalent binding of electrophile compounds to K-Ras G12D (mass spectrometry)
T1 construct: Rec full length G12D became loaded with either GDP or GTPyS and Mg2+; His tag
Protocol: FIGS. 13A-13E. […] FIG. 13B and FIG. 13D were performed after 5 hours. FIG. 13C and FIG. 13E were performed at 23 hours.
FIGS. 15A-15D. Experiments with Stereoisomers of Difluorophenoxy-6B9; Kras G12D/GTPyS/Mg2+, DMSO control, 2 h incubation at RT; The binding of FB9 to Kras G12D was compared with the stereoisomers of Difluorophenoxy-6B9 (53, 54); FB9 bound 100% after 2 h incubation; Difluorophenoxy-6B9 (compound ‘53’) bound to about 62% compared to FB9 under the same condition; The stereoisomer (‘54’) of compound ‘53’ bound to roughly 35% compared to FB9 which is roughly 50% of compound ‘53’; Partial stereospecific interaction.

Kras = test: Interaction of FB9 with Kras in the absence or presence of BME; format: binding, human; conditions: RT
[1] = system: Ras-less cells exogenously expressing K-Ras G12D; test: EGF stimulation plus FB9 in G12D expressing RAS-less MEFS; format: cell-based; conditions: EGF for 30 and 60 minutes, FB9 at various concentrations
Protocol: FIG. 22. Cell Based Assays with G12D expressing RAS-less MEFS; Ras-less cells exogenously expressing K-Ras G12D were stimulated with EGF for 30 and 60 minutes. Concomitantly FB9 was added at various concentrations. Similar experiments were done with pancreatic cell lines expressing various oncogenic mutations. […] Growth curves were also performed.

[2] = molecular target: T2, KRAS4b (1-188), unprocessed (Homo sapiens, UniProt P01116); test: MALDI-TOF analysis of modification of unprocessed KRAS4b; format: binding
T2 construct: G (one extra N-terminal glycine before Met1, remnant of the construct) (N); made in house; host or cells: E. coli
Protocol: FIG. 27. Comparing Gel Mobility and Antibody Reactivity of Different Purified K-Ras 4B Forms. E. Coli: unprocessed K-ras 4B purified from E. coli. Fme: processed K-ras 4B purified from SF9 cells. FB9: unprocessed K-ras 4B labeled with FB9 to about 70%.
Chemical modification of unprocessed KRAS-4b at His-95 (protein G-Hs.KRAS4b(1-188), mass (average) 21481.59 Da.
KRAS4b (FIG. 43) was modified by FB9 in vitro (using 8.8-fold molar excess of FB9 for 1 h at 37° C., followed by 16 h at room temperature, 22° C.). […] Molecular species with 1 and 2 and 3 modification groups were present (FIG. 44).
To identify the modified amino acid residues, the protein preparation was digested by protease Glu-C. […] Peptide with m/z 1735 corresponds to sequence GKKKKKKSKTKCVIM (SEQ ID NO: 3) (174-189) and m/z 2085 corresponds to the same peptide modified by FB9 at Cys-186 (confirmed by fragmentation).
To identify other potential residues modified by FB9, peptides obtained after digestion by Glu-C were further digested by trypsin (FIG. 46A).

fmeKRAS4b = molecular target: T3, fmeKRAS4b (Homo sapiens, UniProt P01116); test: MALDI-TOF analysis of modification of processed (farnesylated, carboxymethylated) KRAS4b; format: binding
T3 construct: GG (two N-terminal glycines in place of Met1, remnant of the construct) (N); made in house; host or cells: SF9 insect cells
Protocol: FIG. 36. Modification of fmeKRAS4b by FB9. Recombinant fmeKRAS4b was loaded with GDP or GppNHp (a nonhydrolyzable analogue of GTP), then reacted with FB9 at 37° C. for 100 min.
Modification of processed (farnesylated and carboxylmethylated KRAS4b). Protein prep GG-HsKRAS-4b, RP1151105092454 FmeKRAS4b (FIG. 47A) was modified by FB9 with 7.6-fold molar excess of FB9 for 1 h at 37° C., followed by 16 h at room temperature (22° C.). […] To identify the modified amino acid residues protein preparation was digested by trypsin.
During fragmentation, these modified peptides yielded intensive fragment corresponding to unmodified peptide and fragments of peptide (mostly without modification).
These peptides were modified on His residues. To identify which His was modified (i.e. 95 or 96 in the sequence of used recombinant KRAS) fragmentation spectra were analyzed in BioTools when FB9 modification (C17H20Cl1N2O4, 350/351) was set on one of these His residues in Sequence Editor.
In fragmentation spectrum of 1554 a fragment 825.409 was present but not in a spectrum of 1203. When FB9 modification was on His-7 this fragment was assigned by BioTools as modified y-3. Manual examination of the spectrum confirmed this conclusion.

[3] = Reactivity of FB9 with BME; format: physicochemical; conditions: 1 mM FB9, 5 mM BME, 37° C., 55 minutes
Protocol: FIGS. 20A-20C. Reactivity of Tetrafluorophenoxy-6B9 (FB9) with BME; experiment was done with 1 mM FB9 and minus or plus 5 mM BME at 37° C.

bound better than enantiomer FB9D (K-Ras G12D; K-Ras (G12D), GTPyS/Mg, 50 μM for 2.5 h at RT): 25-30%
bound to Kras G12D (K-Ras G12D; Kras G12D/GTPyS/Mg2+, 2 h incubation at RT): 100%
extent of chemical modification of unprocessed KRAS4b ([2]; 8.8-fold molar excess of FB9, 1 h at 37° C., then 16 h at 22° C.): close to complete
unprocessed K-ras 4B labeled with FB9 ([2]; protein preparation used for gel mobility comparison): about 70%
product formed with BME (reduction of the free compound peak) [3]: about 25%
Compound: COc1ccc(Cl)cc1C(=O)N1CCC[C@H](C(=O)NCC(=O)COc2c(F)c(F)cc(F)c2F)C1 [FB9, (3S)-1-[(5-Chloro-2-methoxyphenyl)carbonyl]-N-[2-oxo-3-(2,3,5,6-tetrafluorophenoxy)propyl]piperidine-3-carboxamide]
labelling at a second site (K-Ras G12D; K-Ras/GDP/Mg2+, 5 h): significantly labelled at a second site after 5 h
binding to GTPyS versus GDP bound K-Ras G12D (K-Ras G12D; ~10 μM protein, 100 μM compound, RT, 5 and 23 hours): bound better when K-Ras was in complex with GTPyS/Mg2+
reactivity with Kras when BME is titrated in (Kras): reactivity of the compound being reduced
K-Ras protein levels [1]: Changes at K-Ras protein levels are visible
extent of chemical modification of FmeKRAS4b (fmeKRAS4b; 7.6-fold molar excess of FB9, 1 h at 37° C., then 16 h at 22° C.): major form represented species with 1 added modification group
covalent modification, GDP versus GppNHp loaded protein (fmeKRAS4b; 37° C. for 100 min, 350 Da mass addition): more pronounced when GTP analogue was present
residue modified in FME-Kras4B (fmeKRAS4b; recombinant farnesylated-carboxymethylated protein): covalently modifies histidine 95 residue (H95); also recorded: His7 (i.e. H95 in the native protein) is modified

From patent US11541044B2, “K-Ras modulators” (The Regents of the University of California, priority 2015, dated 2023)
